As usually defined, the Ki is a measure of affinity in units of concentration, obtained from inhibition or displacement. A high value points to a looser hold on the target. In general, IC50 refers to the concentration at which inhibition is half-maximal. The low end stands for greater potency, the high end for weaker potency.

Each structure is given as a SMILES string.

Experiment [1] concerns the target T1, Sodium-dependent dopamine transporter (Homo sapiens, UniProt Q01959). Put plainly: Compound was tested for inhibition of [125I]RTI-55 binding to dopamine transporter in HEK cells. The class given is cell-based, HEK293.
Experiment [2] addresses T1, Sodium-dependent dopamine transporter. Put plainly: Compound was tested for inhibition of [3H]DA binding to dopamine (DAT) transporter in HEK cells. The format is cell-based, HEK293.
Experiment [3] deals with T2, Sodium-dependent serotonin transporter (Homo sapiens, UniProt P31645). The experiment in a line: Ratio of uptake inhibition to binding affinity to human SERT (IC50/Ki).
Target sequence in this assay (P31645 whole entry, looked up): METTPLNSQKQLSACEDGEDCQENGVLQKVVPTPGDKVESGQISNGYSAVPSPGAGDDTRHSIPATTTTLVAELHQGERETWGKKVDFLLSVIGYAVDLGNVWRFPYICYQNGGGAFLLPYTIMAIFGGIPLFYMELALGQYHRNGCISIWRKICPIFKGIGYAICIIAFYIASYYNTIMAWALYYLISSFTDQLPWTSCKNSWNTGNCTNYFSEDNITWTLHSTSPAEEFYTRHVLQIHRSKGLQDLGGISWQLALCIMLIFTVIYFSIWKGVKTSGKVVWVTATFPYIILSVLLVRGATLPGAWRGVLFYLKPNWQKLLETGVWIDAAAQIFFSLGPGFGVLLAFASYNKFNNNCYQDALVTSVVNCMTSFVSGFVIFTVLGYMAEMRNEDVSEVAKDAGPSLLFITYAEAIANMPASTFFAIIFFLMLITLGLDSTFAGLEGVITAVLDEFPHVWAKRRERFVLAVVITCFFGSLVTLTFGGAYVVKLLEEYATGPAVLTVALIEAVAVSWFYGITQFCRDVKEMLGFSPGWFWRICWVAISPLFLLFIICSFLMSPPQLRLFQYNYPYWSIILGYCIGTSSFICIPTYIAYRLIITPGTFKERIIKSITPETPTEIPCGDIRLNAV
For experiment [4], the target named is T1, Sodium-dependent dopamine transporter. Put plainly: Ratio of uptake inhibition to binding affinity to human DAT (IC50/Ki).
Experiment [5] has as its target T2, Sodium-dependent serotonin transporter. The experiment in a line: Compound was tested for inhibition of [3H]5-HT binding to Serotonin transporter in HEK cells. The format is cell-based, HEK293.
Target sequence in this assay (P31645 whole entry): as the sequence (P31645 whole entry, looked up) above
For experiment [6] the target is unchanged. The experiment in a line: Compound was tested for inhibition of [125I]RTI-55 binding to Serotonin transporter in HEK cells. The format is cell-based, HEK293.
Target sequence in this assay (P31645 whole entry): as the sequence (P31645 whole entry, looked up) above
For experiment [7], the target named is T3, Sodium-dependent noradrenaline transporter (Homo sapiens, UniProt P23975). The experiment in a line: Compound was tested for inhibition of [3H]NE binding to norepinephrine transporter HEK cells. The format is cell-based, HEK293.
T3 sequence (P23975 whole entry): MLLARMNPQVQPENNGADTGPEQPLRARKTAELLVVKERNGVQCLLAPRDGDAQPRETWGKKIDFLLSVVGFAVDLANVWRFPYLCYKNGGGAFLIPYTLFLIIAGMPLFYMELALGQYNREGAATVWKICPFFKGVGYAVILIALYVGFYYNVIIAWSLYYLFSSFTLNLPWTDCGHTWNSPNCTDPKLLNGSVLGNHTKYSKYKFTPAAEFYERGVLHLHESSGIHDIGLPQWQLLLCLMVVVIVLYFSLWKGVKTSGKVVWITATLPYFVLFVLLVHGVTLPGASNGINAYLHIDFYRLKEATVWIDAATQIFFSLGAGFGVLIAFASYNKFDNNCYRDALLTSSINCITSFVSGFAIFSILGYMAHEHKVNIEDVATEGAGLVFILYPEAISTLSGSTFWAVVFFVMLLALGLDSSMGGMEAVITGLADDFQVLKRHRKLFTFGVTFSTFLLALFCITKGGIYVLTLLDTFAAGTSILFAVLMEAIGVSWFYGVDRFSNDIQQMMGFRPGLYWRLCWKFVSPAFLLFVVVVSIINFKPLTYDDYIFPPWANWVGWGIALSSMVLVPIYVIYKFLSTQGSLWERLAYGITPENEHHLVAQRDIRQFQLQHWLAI
For experiment [8], the target named is T3, Sodium-dependent noradrenaline transporter. The experiment in a line: Compound was tested for inhibition of [125I]-RTI-55 binding to norepinephrine transporter HEK cells. The format is cell-based, HEK293.
The target is the same in experiment [9]. The experiment in a line: Ratio of uptake inhibition to binding affinity to human NET (IC50/Ki).

T1 sequence (Q01959 whole entry): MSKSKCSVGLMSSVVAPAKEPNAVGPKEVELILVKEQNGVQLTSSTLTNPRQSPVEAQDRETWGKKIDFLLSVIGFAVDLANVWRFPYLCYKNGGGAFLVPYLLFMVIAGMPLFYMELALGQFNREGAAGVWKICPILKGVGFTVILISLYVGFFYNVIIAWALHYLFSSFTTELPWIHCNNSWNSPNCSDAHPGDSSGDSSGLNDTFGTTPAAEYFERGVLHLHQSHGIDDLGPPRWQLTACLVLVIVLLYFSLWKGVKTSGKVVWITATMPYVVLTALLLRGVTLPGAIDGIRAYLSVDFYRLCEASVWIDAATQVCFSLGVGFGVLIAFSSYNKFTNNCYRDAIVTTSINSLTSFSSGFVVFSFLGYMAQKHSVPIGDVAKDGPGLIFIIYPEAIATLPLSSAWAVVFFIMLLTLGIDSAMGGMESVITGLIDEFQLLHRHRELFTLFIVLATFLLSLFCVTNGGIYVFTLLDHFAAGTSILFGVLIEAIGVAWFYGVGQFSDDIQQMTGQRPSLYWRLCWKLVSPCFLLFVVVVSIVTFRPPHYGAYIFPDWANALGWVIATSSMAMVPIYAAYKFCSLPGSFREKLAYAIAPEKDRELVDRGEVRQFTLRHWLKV

In experiment [1], `COC(=O)C1C(c2ccc(Cl)cc2)CC2CCC1N2C` (configuration not stated) yielded a Ki of 1.1 nM. The same compound displayed an IC50 in experiment [2] of 1.7 nM.
Regarding `CN1C2CCC1C(C(=O)NCCCCCCCCNC(=O)C1C(c3ccc(Cl)cc3)CC3CCC1N3C)C(c1ccc(Cl)cc1)C2` (configuration not stated), the Ratio in [3] worked out at 12.5; in experiment [4], 130. The IC50 in experiment [5] stood at 99 nM; in experiment [7], 487 nM; in [2], 871 nM. The inhibition constant Ki in experiment [6] came to 7.9 nM; in experiment [1], 6.7 nM; in experiment [8] it was 830 nM.
On to `CN1C2CCC1C(C(=O)NCCCCNC(=O)C1C(c3ccc(Cl)cc3)CC3CCC1N3C)C(c1ccc(Cl)cc1)C2` (configuration not stated), for which the Ratio came to 0.06 in experiment [3], 76.8 in [4] and 1.09 in experiment [9]. For the same compound, the IC50 in experiment [5] amounted to 176 nM; in experiment [7], 2260 nM; in experiment [2] it was 1670 nM. Also, the inhibition constant (Ki) in experiment [6] was found to be 3140 nM; in [1], 21.7 nM; in experiment [8] it was 2070 nM.
Regarding `CN1C2CCC1C(C(=O)NCCCCCCNC(=O)C1C(c3ccc(Cl)cc3)CC3CCC1N3C)C(c1ccc(Cl)cc1)C2` (configuration not stated), the Ratio was 2.2 in experiment [3], 76.3 in [4] and 5.59 in experiment [9]. The IC50 is 225 nM in experiment [5], 1850 nM in experiment [7] and 1400 nM in [2]. In addition, the results for the Ki in experiment [6], in experiment [1] and in experiment [8] were 102 nM, 18.4 nM and 330 nM, respectively.
As to `CN1C2CCC1C(C(=O)NCCCNC(=O)C1C(c3ccc(Cl)cc3)CC3CCC1N3C)C(c1ccc(Cl)cc1)C2` (configuration not stated), the Ratio in experiment [3] came to 1.17; in experiment [4], 0.8; in [9] it was 0.09. In addition, the figures for the half-maximal inhibitory concentration (IC50) in experiment [5], in experiment [7] and in [2] were 441 nM, 266 nM and 52.2 nM, respectively. Further, the figures for the Ki in [6], in experiment [1] and in experiment [8] were 357 nM, 65.1 nM and 2970 nM, respectively.

The record behind these values is ChEMBL document CHEMBL1136813, “Bivalent biogenic amine reuptake inhibitors” (Bioorg Med Chem Lett, 2003).
